We go through 21 compounds from US20110053947A1, “Arylchalcogenoarylalkyl-substituted imidazolidine-2,4-diones, process for preparation thereof, medicaments comprising these compounds and use thereof” (SANOFI-AVENTIS, priority 2008, published 2011).

Assay [1] deals with T1, cannabinoid 2 receptor (hCB2R) (Homo sapiens, UniProt P34972).
T1 construct: expressed in transfected cells; host or cells: HEK293
Description: In vitro functional assay with recombinant cells (FLIPR), CB2. The format is cell-based. Here is the method:
(§1) In vitro functional assays with recombinant cells:
(§2) Function-testing assays were performed by means of the FLIPR technique (“Fluorometric Imaging Plate Reader”, Molecular Devices Corp.).
(§3) To this end, ligand-induced changes in the intracellular concentration of Ca^2+ in recombinant HEK293 cells, which expressed both a cannabinoid receptor (CB1 or CB2) and G-protein Galphal6, were determined. For the studies, cells were sown into 96-well microtiter plates (60 000 cells/well) and left to grow overnight. The medium was removed and the cells were incubated in buffer which contained the fluorescent dye Fluo-4. After this loading with dye, the cells were washed, test substance was added dissolved in buffer, the mixture was incubated for 20 minutes, a known cannabinoid receptor agonist as a reference agonist was added in buffer and, finally, the changes in the intracellular Ca^2+ concentration were measured in the FLIPR unit.

For assay [2], the target named is T2, cannabinoid 1 receptor (hCB1R) (Homo sapiens, UniProt P21554).
T2 construct: expressed in transfected cells; host or cells: HEK293
Description: In vitro functional assay with recombinant cells (FLIPR), CB1. The format is cell-based. The conditions noted are these: intracellular Ca2+ change after reference agonist, 20 min preincubation. Here is the method:
as §1, §2, §3
Results were presented as the percentage change relative to the control (0%: analogous experiment without test substance and without reference agonist, i.e. only with buffer; 100%: analogous experiment without test substance, but with reference agonist in excess), and used to calculate dose/action curves, and IC50 values were determined.
The values of the functional assay compared to the cannabinoid 1 receptor including illustrative selectivities compared to the cannabinoid 2 receptor can be taken from table 1 which follows.

In assay [3] the target is T3, CHO-K1/cannabinoid CB1 (hCB1R) (Homo sapiens, UniProt P21554).
T3 construct: expressed in transfected cells; host or cells: CHO-K1
Description: Binding to the CB1 receptor ([3H]-SR141716A displacement). The note with it: [3H]-SR141716A 0.5 nM; Ki from IC50 and Kd by Cheng-Prusoff; average of double determination; read-out: hCB1R; Bindung Ki. As for the experimental part:
Binding to the CB 1 Receptor:
Test compounds: The compounds (3 μl, 10 mM, 100% DMSO), pipetted into 96-well PP microtiter plates, were diluted with 27 μl of 100% DMSO (dimethyl sulfoxide). Proceeding from this solution, further 3-fold dilution steps were undertaken by transferring 10 μl in each case to a new PP microtiter plate and adding a further 20 μl of 100% DMSO. In each case 6 μA of these solutions were transferred into new 96-well PP microtiter plates and made up with 144 μl of assay buffer. The end concentrations ranged from 10 μM to 0.005 μM. Negative control: AM 251, dissolved in assay buffer with 1% DMSO, was added to the dilution series in the microtiter plates as a control. The end concentration was 1 μM. Blank control: assay buffer with 1% DMSO was added to the dilution series of the microtiter plates as a blank control.
Summary of the Assay Parameters:
The values were calculated using the corrected raw data.
The values reported were obtained as average values of a double determination. The IC50 values were calculated from the measurements with the program Xlfit, formula 205. Ki values were obtained from the IC50 and Kd values utilizing the Cheng-Prusoff equation: […]
Literature: Cheng, Y.-C., and Prusoff, W. H. (1973) Biochem. Pharmacol 22, 3099-3108 Results: Ki values of example compounds; Table 2: […]

Where [4] appears, read: recombinant HEK293 cells expressing CB2 and G-protein, intracellular Ca2+ change after reference agonist, 20 min preincubation, read-out: hCB2R: FLIPR, IC50.
[5] abbreviates: recombinant HEK293 cells expressing CB1 and G-protein, read-out: hCB1R: FLIPR, IC50.
[6] abbreviates: hCB1R: FLIPR, IC50, recombinant HEK293 cells expressing CB1 and G-protein.

Structures can show the parent of a compound that is named as a salt. Where two headings read alike, the source gives them in different places.

T1 sequence (P34972 whole entry): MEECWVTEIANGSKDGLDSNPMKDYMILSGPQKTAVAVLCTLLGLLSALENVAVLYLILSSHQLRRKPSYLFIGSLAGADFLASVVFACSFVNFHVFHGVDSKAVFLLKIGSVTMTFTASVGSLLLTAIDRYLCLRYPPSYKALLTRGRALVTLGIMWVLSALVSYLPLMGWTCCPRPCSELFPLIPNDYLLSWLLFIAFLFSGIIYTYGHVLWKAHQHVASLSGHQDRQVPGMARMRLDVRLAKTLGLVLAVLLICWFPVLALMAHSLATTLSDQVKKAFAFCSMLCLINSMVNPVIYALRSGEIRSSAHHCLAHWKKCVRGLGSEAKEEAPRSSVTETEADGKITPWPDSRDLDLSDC
T2 sequence (P21554 whole entry): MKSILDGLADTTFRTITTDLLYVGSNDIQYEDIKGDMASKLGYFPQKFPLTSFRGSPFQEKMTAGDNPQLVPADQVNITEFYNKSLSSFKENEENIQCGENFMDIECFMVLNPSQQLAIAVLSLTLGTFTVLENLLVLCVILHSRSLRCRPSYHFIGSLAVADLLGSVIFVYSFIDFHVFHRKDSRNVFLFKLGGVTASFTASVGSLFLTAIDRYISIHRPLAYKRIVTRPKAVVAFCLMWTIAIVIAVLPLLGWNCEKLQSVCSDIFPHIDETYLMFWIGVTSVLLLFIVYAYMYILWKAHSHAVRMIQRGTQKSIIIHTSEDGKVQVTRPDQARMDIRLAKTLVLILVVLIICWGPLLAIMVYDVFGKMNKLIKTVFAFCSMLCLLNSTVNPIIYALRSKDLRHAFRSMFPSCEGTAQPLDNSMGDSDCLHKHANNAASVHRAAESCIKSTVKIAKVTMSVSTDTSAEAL
T3 sequence (P21554 whole entry): as above

Regarding `CC1(C)C(=O)N(c2ccc(C#N)c(C(F)(F)F)c2)C(=O)N1Cc1ccccc1NC(=O)Nc1ccc(S(=O)(=O)O)cc1` [Example 2, 4-(3-{2-[3-(4-cyano-3-trifluoromethylphenyl)-5,5-dimethyl-2,4-dioxoimidazolidin-1-ylmethyl]phenyl}ureido)benzenesulfonic acid], the IC50 in assay [1] (setting [4]) is over 10000 nM; in assay [2] (setting [5]), 220 nM.

As to `CC1(C)C(=O)N(c2ccc(C#N)c(C(F)(F)F)c2)C(=O)N1Cc1ccccc1NC(=O)Nc1ccc(C(=O)O)cc1` [Example 4, 4-(3-{2-[3-(4-Cyano-3-trifluoromethylphenyl)-5,5-dimethyl-2,4-dioxo-imidazolidin-1-ylmethyl]phenyl}ureido)benzoic acid], the IC50 is over 10000 nM in assay [1] (setting [4]) and 109 nM in assay [2] (setting [5]).

On to `CC1(C)C(=O)N(c2ccc(C#N)c(C(F)(F)F)c2)C(=O)N1Cc1ccccc1NC(=O)Nc1ccc(C#N)cc1` [Example 6, 1-(4-cyanophenyl)-3-{2-[3-(4-cyano-3-trifluoromethylphenyl)-5,5-dimethyl-2,4-dioxoimidazolidin-1-ylmethyl]phenyl}urea], for which the IC50 was over 10000 nM in assay [1] (setting [4]) and 11 nM in assay [2] (setting [6]).

For the compound `CC1(C)C(=O)N(c2ccc(C#N)c(C(F)(F)F)c2)C(=O)N1Cc1ccccc1NC(=O)Nc1ccc(F)cc1F` [Example 7, 1-{2-[3-(4-cyano-3-trifluoromethylphenyl)-5,5-dimethyl-2,4-dioxoimidazolidin-1-ylmethyl]phenyl}-3-(2,4-difluorophenyl)urea], the Ki in assay [3] came to 73 nM.

In the case of `CC1(C)C(=O)N(c2ccc(C#N)c(C(F)(F)F)c2)C(=O)N1Cc1ccccc1NC(=O)Nc1cccc(C#N)c1` [Example 8, 1-(3-cyanophenyl)-3-{2-[3-(4-cyano-3-trifluoromethylphenyl)-5,5-dimethyl-2,4-dioxoimidazolidin-1-ylmethyl]phenyl}urea], the IC50 in assay [1] (setting [4]) was over 10000 nM; in assay [2] (setting [6]), 35 nM.

For `CC1(C)C(=O)N(c2ccc(C#N)c(C(F)(F)F)c2)C(=O)N1Cc1ccccc1NC(=O)Nc1ccccc1` [Example 9, 1-{2-[3-(4-cyano-3-trifluoromethylphenyl)-5,5-dimethyl-2,4-dioxoimidazolidin-1-ylmethyl]phenyl}-3-phenylurea], the Ki in assay [3] is 32 nM.

Consider `CCOc1ccc(NC(=O)Nc2ccccc2CN2C(=O)N(c3ccc(C#N)c(C(F)(F)F)c3)C(=O)C2(C)C)cc1` [Example 10, 1-{2-[3-(4-cyano-3-trifluoromethylphenyl)-5,5-dimethyl-2,4-dioxoimidazolidin-1-ylmethyl]phenyl}-3-(4-ethoxyphenyl)urea], for which the IC50 in assay [1] was over 10000 nM; in assay [2] (setting [5]), 53 nM.

For the compound `C[S+]([O-])c1ccc(NC(=O)Nc2ccccc2CN2C(=O)N(c3ccc(C#N)c(C(F)(F)F)c3)C(=O)C2(C)C)cc1` (stereo not shown) [Example 12, 1-{2-[3-(4-cyano-3-trifluoromethylphenyl)-5,5-dimethyl-2,4-dioxoimidazolidin-1-ylmethyl]phenyl}-3-(4-methanesulfinylphenyl)urea], in assay [3], the Ki is 11 nM.

Regarding `CC1(C)C(=O)N(c2ccc(C#N)c(C(F)(F)F)c2)C(=O)N1Cc1ccccc1NC(=O)Nc1ccc(S(C)(=O)=O)cc1` [Example 13, 1-{2-[3-(4-cyano-3-trifluoromethylphenyl)-5,5-dimethyl-2,4-dioxoimidazolidin-1-ylmethyl]phenyl}-3-(4-methanesulfonylphenyl)urea], in assay [3], the Ki came to 7 nM.

For `CC1(C)C(=O)N(c2ccc(C#N)c(C(F)(F)F)c2)C(=O)N1Cc1ccccc1NS(=O)(=O)Cc1ccc(F)cc1F` [Example 15, N-{2-[3-(4-cyano-3-trifluoromethylphenyl)-5,5-dimethyl-2,4-dioxoimidazolidin-1-ylmethyl]phenyl}-C-(2,4-difluorophenyl)methanesulfonamide], the Ki in assay [3] worked out at 58 nM.

Take `CC1(C)C(=O)N(c2ccc(C#N)c(C(F)(F)F)c2)C(=O)N1Cc1ccc(F)cc1NC(=O)Nc1ccc(C(=O)O)cc1` [Example 18, 4-(3-{2-[3-(4-Cyano-3-trifluoromethylphenyl)-5,5-dimethyl-2,4-dioxoimidazolidin-1-ylmethyl]-5-fluorophenyl}ureido)benzoic acid]: the Ki in assay [3] was 68 nM.

For `CC1(C)C(=O)N(c2ccc(C#N)c(C(F)(F)F)c2)C(=O)N1Cc1ccc(F)cc1NC(=O)Nc1cc(Cl)nc(Cl)c1` [Example 21, 1-{2-[3-(4-cyano-3-trifluoromethylphenyl)-5,5-dimethyl-2,4-dioxoimidazolidin-1-ylmethyl]-5-fluorophenyl}-3-(2,6-dichloropyridin-4-yl)urea], the Ki in assay [3] was 34 nM.

Take `CC1(C)C(=O)N(c2ccc(F)c(C(F)(F)F)c2)C(=O)N1Cc1ccc(F)cc1NC(=O)Nc1ccc(N)cc1` [Example 23, 1-(4-Aminophenyl)-3-{5-fluoro-2-[3-(4-fluoro-3-trifluoromethylphenyl)-5,5-dimethyl-2,4-dioxoimidazolidin-1-ylmethyl]phenyl}urea hydrochloride]: the Ki in assay [3] was determined as 17 nM.

As to `CC1(C)C(=O)N(c2ccc(F)c(C(F)(F)F)c2)C(=O)N1Cc1ccc(F)cc1NC(=O)Nc1ccc(S(N)(=O)=O)cc1` [Example 24, 4-(3-{5-fluoro-2-[3-(4-fluoro-3-trifluoromethylphenyl)-5,5-dimethyl-2,4-dioxoimidazolidin-1-ylmethyl]phenyl}ureido)benzenesulfonamide], the Ki in assay [3] is 9 nM.

Consider `CCOP(=O)(OCC)c1ccc(NC(=O)Nc2cc(F)ccc2CN2C(=O)N(c3ccc(F)c(C(F)(F)F)c3)C(=O)C2(C)C)cc1` [Example 32, Diethyl [4-(3-{5-fluoro-2-[3-(4-fluoro-3-trifluoromethylphenyl)-5,5-dimethyl-2,4-dioxoimidazolidin-1-ylmethyl]phenyl}ureido)phenyl]phosphonate], for which, in assay [3], the Ki stood at 40 nM.

As to `COC(=O)c1ccc(NC(=O)Nc2cc(F)ccc2CN2C(=O)N(c3ccc(C#N)c(C(F)(F)F)c3)C(=O)C2(C)C)nc1` [Example 42, methyl 6-(3-{2-[3-(4-cyano-3-trifluoromethylphenyl)-5,5-dimethyl-2,4-dioxoimidazolidin-1-ylmethyl]-5-fluorophenyl}ureido)nicotinate], in assay [3], the Ki was 35 nM.

As for `CC1(C)C(=O)N(c2ccc(C#N)c(C(F)(F)F)c2)C(=O)N1Cc1ccc(F)cc1NC(=O)Nc1ccnc(O)c1` [Example 43, 1-{2-[3-(4-cyano-3-trifluoromethylphenyl)-5,5-dimethyl-2,4-dioxoimidazolidin-1-ylmethyl]-5-fluorophenyl}-3-(2-hydroxypyridin-4-yl)urea], the Ki in assay [3] came out at 17 nM. In assay [2] (setting [5]), the IC50 turned out to be 27 nM.

`CCS(=O)(=O)c1ccc(NC(=O)Nc2cc(F)ccc2CN2C(=O)N(c3ccc(C#N)c(C4CC4)c3)C(=O)C2(C)C)cc1` [Example 45, 1-{2-[3-(4-Cyano-3-cyclopropylphenyl)-5,5-dimethyl-2,4-dioxoimidazolidin-1-ylmethyl]-5-fluorophenyl}-3-(4-ethanesulfonylphenyl)urea]: in assay [3], the Ki was found to be 6 nM.

On to `COC(=O)CS(=O)(=O)c1ccc(NC(=O)Nc2cc(F)ccc2CN2C(=O)N(c3ccc(C#N)c(C4CC4)c3)C(=O)C2(C)C)cc1` [Example 46, Methyl [4-(3-{2-[3-(4-cyano-3-cyclopropylphenyl)-5,5-dimethyl-2,4-dioxoimidazolidin-1-ylmethyl]-5-fluorophenyl}ureido)benzenesulfonyl]acetate], for which, in assay [3], the Ki was found to be 7 nM.

Turning to `COC(=O)CSc1ccc(NC(=O)Nc2cc(F)ccc2CN2C(=O)N(c3ccc(C#N)c(C(F)(F)F)c3)C(=O)C2(C)C)cc1` [Example 49], the Ki in assay [3] amounted to 11 nM. The IC50 in assay [2] (setting [5]) was determined as 2 nM.

For `COC(=O)c1ccc(NC(=O)Nc2cc(F)ccc2CN2C(=O)N(c3ccc(F)c(C(F)(F)F)c3)C(=O)C2(C)C)cc1` [Example 59, methyl 4-(3-{5-fluoro-2-[3-(4-fluoro-3-trifluoromethylphenyl)-5,5-dimethyl-2,4-dioxoimidazolidin-1-ylmethyl]phenyl}ureido)benzoate], the Ki in assay [3] stood at 29 nM.
